Measurements reported in patent US6846492B2, “Use of phenylethylamine derivatives for the antimicrobial treatment of surfaces” (Ciba Specialty Chemicals Corporation, priority 2000, dated 2005).

Legend:
Format in all cases: cell-based
[1] = tested on: Candida albicans ATCC 10231 (= CA); test: MIC determination in microtiter plates, Candida albicans; conditions: Tables 2a/2b, 48 hours at 37° C., ≦20% growth, optical density 620 nm, some approximate values
Description: (§1) Determination of the Minimum Inhibitory Concentration (MIC Value) in Microtiter Plates
(§2) Casein/soybean flour peptone bouillon for the preparation of pre-cultures of the test bacteria and yeast.
(§3) Mycological slant agar for the pre-culture of moulds
(§4) The test substances are pre-dissolved in dimethyl sulfoxide (DMSO) and tested in a dilution series of 1:2.
(§5) Bacteria and yeast are cultured overnight in CASO bouillon, the mould is cultured overnight on mycological slant agar, and washed off with 10 ml of 0.85% sodium chloride solution (+0.1% TritonX-100).
(§6) All the test organisms are adjusted to an organism count of 1−5×10^6 CFU/ml using 0.85% sodium chloride solution.
(§7) The test substances are pre-pipetted into microtiter plates in an amount of 8 μl per well.
(§8) Pre-diluted organism suspensions are diluted 1:100 in CASO bouillon (bacteria and yeast) or Sabouraud 2% glucose bouillon (mould) and are added in an amount of 192 μl per well to the test substances.
(§9) The test batches are incubated for 48 hours at 37° C. (bacteria and yeast) or for 5 days at 28° C. (mould).
(§10) After incubation, the growth is evaluated by reference to the turbidity of the test batches (optical density) at 620 nm in a microplate reader.
(§11) One microtiter plate is used for each test organism and substance concentration. All the substances are tested in duplicate.

[2] = tested on: Escherichia coli NCTC 8196 (= EC); test: MIC determination in microtiter plates, Escherichia coli; conditions: Tables 2a/2b, 48 hours at 37° C., ≦20% growth, optical density 620 nm, some approximate values
Description: as §1, §2, §3, §4, §5, §6, §7, §8, §9, §10, §11

[3] = tested on: Aspergillus niger ATCC 6275 (= AN); test: MIC determination in microtiter plates, Aspergillus niger; conditions: Tables 2a/2b, 5 days at 28° C., ≦20% growth, optical density 620 nm, some approximate values
Description: as §1, §2, §3, §4, §5, §6, §7, §8, §9, §10, §11

[4] = tested on: Staphylococcus hominis DMS 20328 (= SH); test: MIC determination in microtiter plates, Staphylococcus hominis; conditions: Tables 2a/2b, 48 hours at 37° C., ≦20% growth, optical density 620 nm, tested at 120, 60, 30, 15, 7.5 and 3.5 ppm, some approximate
Description: as §1, §2, §3, §4, §5, §6, §7, §8, §9, §10, §11

[5] = tested on: Pseudomonas aeruginosa CIP A-22 (= PA); test: MIC determination in microtiter plates, Pseudomonas aeruginosa; conditions: Tables 2a/2b, 48 hours at 37° C., ≦20% growth, optical density 620 nm, some approximate values
Description: as §1, §2, §3, §4, §5, §6, §7, §8, §9, §10, §11

Structure (SMILES)	MIC [ppm] CA [1]	MIC [ppm] EC [2]	MIC [ppm] AN [3]	MIC [ppm] SH [4]	MIC [ppm] PA [5]
CCC(CC)Oc1ccc(CCN)cc1OC(CC)CC [Compound 35]	60 ppm	60 ppm	>120 ppm	60 ppm	>120 ppm
C=CCCOc1ccc(CCN)cc1OCCC=C [Compound 43]	>120 ppm	>120 ppm	>120 ppm	>120 ppm	>120 ppm
NCCc1ccc(OCc2ccccc2C(F)(F)F)c(OCc2ccccc2C(F)(F)F)c1 [Compound 8]	15 ppm	7.5 ppm	>120 ppm	7.5 ppm	>120 ppm
N#Cc1cccc(COc2ccc(CCN)cc2OCc2cccc(C#N)c2)c1 [Compound 12]	>120 ppm	120 ppm	30 ppm	60 ppm	>120 ppm
NCCc1cc(OCC(=O)c2ccccc2)c(OCC(=O)c2ccccc2)c(OCC(=O)c2ccccc2)c1 [Compound 97]	>120 ppm	>120 ppm	>120 ppm	>120 ppm	>120 ppm
Cc1ccc(COc2ccc(CCN)cc2OCc2ccc(C)cc2)cc1 [Compound 7]	3.75 ppm	7.5 ppm	>120 ppm	3.75 ppm	120 ppm
Cc1cccc(COc2ccc(CCN)cc2OCc2cccc(C)c2)c1 [Compound 6]	7.5 ppm	15 ppm	120 ppm	7.5 ppm	120 ppm
NCCc1ccc(OCc2ccc(C(F)(F)F)cc2)c(OCc2ccc(C(F)(F)F)cc2)c1 [Compound 10]	3.75 ppm	7.5 ppm	>120 ppm	3.75 ppm	>120 ppm
Cc1ccc(C(=O)COc2cc(CCN)cc(OCC(=O)c3ccc(C)cc3)c2OCC(=O)c2ccc(C)cc2)cc1 [Compound 98]	>120 ppm	30 ppm	>120 ppm	30 ppm	>120 ppm
NCCc1cc(OCc2ccc(F)cc2)c(OCc2ccc(F)cc2)c(OCc2ccc(F)cc2)c1 [Compound 68]	3.75 ppm	3.75 ppm	>120 ppm	3.75 ppm	>120 ppm
CC(C)CCOc1ccc(CCN)cc1OCCC(C)C [Compound 33]	30 ppm	15 ppm	>120 ppm	30 ppm	120 ppm
CCCOC(=O)COc1ccc(CCN)cc1OCC(=O)OCCC [Compound 23]	>120 ppm	>120 ppm	15 ppm	>120 ppm	>120 ppm
NCCc1cc(OCC(=O)OCc2ccccc2)c(OCC(=O)OCc2ccccc2)c(OCC(=O)OCc2ccccc2)c1 [Compound 77]	>120 ppm	>120 ppm	>120 ppm	120 ppm	>120 ppm
CCCCOc1cc(CCN)cc(OCCCC)c1OCCCC [Compound 81]	30 ppm	7,5 ppm	>120 ppm	15 ppm	120 ppm
CCCCCCOc1ccc(CCN)cc1OCCCCCC [Compound 36]	3.75 ppm	3.75 ppm	>120 ppm	3.75 ppm	>120 ppm
CC(C)OC(=O)COc1cc(CCN)cc(OCC(=O)OC(C)C)c1OCC(=O)OC(C)C [Compound 75]	>120 ppm	>120 ppm	>120 ppm	60 ppm	>120 ppm
CC(C)Oc1ccc(CCN)cc1OC(C)C [Compound 31]	>120 ppm	>120 ppm	>120 ppm	>120 ppm	>120 ppm
N#Cc1ccc(COc2cc(CCN)cc(OCc3ccc(C#N)cc3)c2OCc2ccc(C#N)cc2)cc1 [Compound 64]	60 ppm	>120 ppm	15 ppm	>120 ppm	>120 ppm
CCOC(=O)COc1ccc(CCN)cc1OCC(=O)OCC [Compound 22]	>120 ppm	>120 ppm	>120 ppm	>120 ppm	>120 ppm
CCCCCCCCCCOc1ccc(CCN)cc1OCCCCCCCCCC [Compound 40]	>120 ppm	>120 ppm	>120 ppm	>120 ppm	>120 ppm
CCC(C)Oc1cc(CCN)cc(OC(C)CC)c1OC(C)CC (centres unmarked) [Compound 83]	120 ppm	30 ppm	>120 ppm	>120 ppm	>120 ppm
CC(C)(C)c1ccc(COc2ccc(CCN)cc2OCc2ccc(C(C)(C)C)cc2)cc1 [Compound 18]	60 ppm	>60 ppm	>120 ppm	1.9 ppm	>120 ppm
